Source: patent US8501752B2, “Methods for treating cancer and other pathological proliferating disorders by inhibiting mitosis using pyrrolo[2,3-d]pyrimidines” (Duquesne University of the Holy Ghost, priority 2005, dated 2013)

Legend:
NCI-H522 = assay: NCI IVCLSP growth inhibition (SRB), NCI-H522; type: cell-based, human; settings: 48 h drug incubation
Protocol: (§1) FIG. 1 presents nine compounds that were tested using the National Cancer Institute (NCI) 60 human tumor cell lines. The cells lines, which represent leukemia, melanoma, and cancers of the lung, colon, brain, ovary, breast, prostate, and kidney, are listed in Table 1.
(§2) Compounds 1-9 were tested according to the NCI Developmental Therapeutics Program (DTP) In Vitro Cell Line Screening Project (IVCLSP). […] Methodology for testing under the IVCLSP is as follows: The human tumor cell lines of the cancer screening panel are grown in RPMI 1640 medium containing 5% fetal bovine serum and 2 mM L-glutamine. […]
(§3) Following drug addition, the plates are incubated for an additional 48 h at 37° C., 5% CO2, 95% air, and 100% relative humidity. […] Bound stain is subsequently solubilized with 10 mM trizma base, and the absorbance is read on an automated plate reader at a wavelength of 515 nm. […] Using the seven absorbance measurements [time zero, (Tz), control growth, (C), and test growth in the presence of drug at the five concentration levels (Ti)], the percentage growth is calculated at each of the drug concentrations levels. Percentage growth inhibition is calculated as: [(Ti−Tz)/(C−Tz)]×100 for concentrations for which Ti>/=Tz [(Ti−Tz)/Tz]×100 for concentrations for which Ti<Tz.
(§4) Three dose response parameters are calculated for each experimental agent. […]

WAF1 = assay: Western blot, WAF1 expression in MCF-7 cells; type: cell-based, human; settings: 24 hours, various concentrations
Protocol: To further characterize the cell cycle effects of Compound 1 on human tumor cells, MCF-7 cells were treated for 24 hours with various concentrations of Compound 1, vinblastine, or TAXOL (paclitaxel). Cells were then harvested, lysed, and analyzed for levels of expression of p53 and WAF1 by Western Blot analyses. […] Compound 1 is identified as “149” in these figures. […] None of these treatments affected the expression of bcl-2 or P-tubulin in the MCF-7 cells.

MDA-MB-435 = assay: NCI IVCLSP growth inhibition (SRB), MDA-MB-435; type: cell-based, human; settings: 48 h drug incubation
Protocol: as §1, §2, §3, §4

SF-539 = assay: NCI IVCLSP growth inhibition (SRB), SF-539; type: cell-based, human; settings: 48 h drug incubation
Protocol: as §1, §2, §3, §4

UO-31 = assay: NCI IVCLSP growth inhibition (SRB), UO-31; type: cell-based, human; settings: 48 h drug incubation
Protocol: as §1, §2, §3, §4

A549/ATCC = assay: NCI IVCLSP growth inhibition (SRB), A549/ATCC; type: cell-based, human; settings: 48 h drug incubation
Protocol: as §1, §2, §3, §4

MOLT-4 = assay: NCI IVCLSP growth inhibition (SRB), MOLT-4; type: cell-based, human; settings: 48 h drug incubation
Protocol: as §1, §2, §3, §4

[1] = tested on: T24, MCF-7, NCI/ADR, MCF-7/VP; assay: Cytotoxicity, panel of human tumor cell lines of Table 3 (text summaries)
Source text: These cell lines are resistant to anticancer drugs due to overexpression of the transport proteins P-glycoprotein or MRP1.

BT-549 = assay: NCI IVCLSP growth inhibition (SRB), BT-549; type: cell-based, human; settings: 48 h drug incubation
Protocol: as §1, §2, §3, §4

K-562 = assay: NCI IVCLSP growth inhibition (SRB), K-562; type: cell-based, human; settings: 48 h drug incubation
Protocol: as §1, §2, §3, §4

SW-620 = assay: NCI IVCLSP growth inhibition (SRB), SW-620; type: cell-based, human; settings: 48 h drug incubation
Protocol: as §1, §2, §3, §4

SF-268 = assay: NCI IVCLSP growth inhibition (SRB), SF-268; type: cell-based, human; settings: 48 h drug incubation
Protocol: as §1, §2, §3, §4

SN12C = assay: NCI IVCLSP growth inhibition (SRB), SN12C; type: cell-based, human; settings: 48 h drug incubation
Protocol: as §1, §2, §3, §4

[2] = tested on: HL-60 human promyelocytic leukemia cells; assay: Flow cytometric cell cycle phase distribution; type: cell-based; settings: 24 hours treatment
Protocol: Flow cytometric analyses were used to assess the effects of Compound 1 and various antimicrotubule drugs on the cell cycle phase distributions of HL-60 human promyelocytic leukemia cells. The percentage of cells in the G2/M phases were increased approximately 2-fold by treatment of the cells for 24 hours with either TAXOL (paclitaxel), vinblastine, colchicine, or Compound 1.

OVCAR-3 = assay: NCI IVCLSP growth inhibition (SRB), OVCAR-3; type: cell-based, human; settings: 48 h drug incubation
Protocol: as §1, §2, §3, §4

KM12 = assay: NCI IVCLSP growth inhibition (SRB), KM12; type: cell-based, human; settings: 48 h drug incubation
Protocol: as §1, §2, §3, §4

CCRF-CEM = assay: NCI IVCLSP growth inhibition (SRB), CCRF-CEM; type: cell-based, human; settings: 48 h drug incubation
Protocol: as §1, §2, §3, §4

LOX IMVI = assay: NCI IVCLSP growth inhibition (SRB), LOX IMVI; type: cell-based, human; settings: 48 h drug incubation
Protocol: as §1, §2, §3, §4

OVCAR-5 = assay: NCI IVCLSP growth inhibition (SRB), OVCAR-5; type: cell-based, human; settings: 48 h drug incubation
Protocol: as §1, §2, §3, §4

`COc1cc(CCc2cn(Cc3ccccc3)c3nc(N)nc(C)c23)cc(OC)c1OC` [Compound 1] was tested, and the GI50 (NCI-H522) was 47.7 nM, the “level of expression of WAF1 (in words)” value (WAF1) was “induced the expression” and the GI50 (MDA-MB-435) was 10.1 nM. It also gave a GI50 (SF-539) of 74.5 nM, a GI50 (UO-31) of 347 nM and a GI50 (A549/ATCC) of 173 nM. For the same molecule, the GI50 (MOLT-4) was 285 nM, the “cytotoxic potency, better than Compound 4 (2-OMe)” value [1] was 10 fold and the “effect of P-glycoprotein / MRP1 overexpression on cell sensitivity (in words)” value [1] was “neither P-glycoprotein nor MRP1 affect cell sensitivity”. For the same molecule, the “cytotoxic potency (in words)” value ([1]; all tested cell lines) was “Submicromolar cytotoxic potency”, the GI50 (BT-549) was greater than 1000 nM and the GI50 (K-562) was 84.6 nM. For the same molecule, the GI50 (SW-620) was 236 nM, the GI50 (SF-268) was 669 nM and the GI50 (SN12C) was 537 nM. The “increase of the percentage of cells in the G2/M phases” value ([2]; HL-60) was “approximately 2 fold”, the “cell cycle distribution, G2/M” value ([2]; percentage of HL-60 cells) was 9.7 ± 0.4 and the “cell cycle distribution, G9/G1” value ([2]; percentage of HL-60 cells) was 80.0 ± 2.4. For the same molecule, the “cell cycle distribution, S” value ([2]; percentage of HL-60 cells) was 10.3 ± 2.0, the GI50 (OVCAR-3) was 28.8 nM and the GI50 (KM12) was 194 nM. It also gave a GI50 (CCRF-CEM) of 58 nM, a GI50 (LOX IMVI) of 250 nM and a GI50 (OVCAR-5) greater than 1000 nM.
